Measurements as given in PubChem BioAssay (NCI).
Several values for one entry are separate records, joined by “and”; a condition that tells them apart may be missing. Equal values may be shown once.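 1) Cells in 96-well plates. 2) Compound, 48 h, 5 concentrations. 3) Linear interpolation between surrounding doses. 4) Unreached endpoint = highest concentration. At the GI50, growth is halved. TGI denotes the concentration required for complete inhibition of growth.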

Key:
Experiment in all cases: NCI tumour cell line growth inhibition, 48 h
A549 NSCLC = tested on: A549 NSCLC
HT29 colon = tested on: HT29 colon
ACHN renal = tested on: ACHN renal
MDA-N = tested on: MDA-N
DLD-1 colon = tested on: DLD-1 colon
NCI-H226 lung = tested on: NCI-H226 lung
A498 renal = tested on: A498 renal
SNB-78 CNS = tested on: SNB-78 CNS
HCT-116 colon = tested on: HCT-116 colon
M19-MEL melanoma = tested on: M19-MEL melanoma
DU-145 prostate = tested on: DU-145 prostate
HOP-92 NSCLC = tested on: HOP-92 NSCLC
LOX IMVI melanoma = tested on: LOX IMVI melanoma
T-47D breast = tested on: T-47D breast
HCT-15 colon = tested on: HCT-15 colon
BT-549 breast = tested on: BT-549 breast
M14 melanoma = tested on: M14 melanoma
SK-OV-3 ovarian = tested on: SK-OV-3 ovarian
CCRF-CEM leukemia = tested on: CCRF-CEM leukemia
LXFL 529 NSCLC = tested on: LXFL 529 NSCLC
DMS 273 small cell lung = tested on: DMS 273 small cell lung
UACC-62 melanoma = tested on: UACC-62 melanoma
KM20L2 colon = tested on: KM20L2 colon
SK-MEL-2 melanoma = tested on: SK-MEL-2 melanoma
PC-3 prostate = tested on: PC-3 prostate
K-562 leukemia = tested on: K-562 leukemia
MCF7 breast = tested on: MCF7 breast
UACC-257 melanoma = tested on: UACC-257 melanoma
KM12 colon = tested on: KM12 colon
UO-31 renal = tested on: UO-31 renal
DMS 114 small cell lung = tested on: DMS 114 small cell lung
OVCAR-5 ovarian = tested on: OVCAR-5 ovarian
NCI-H460 lung = tested on: NCI-H460 lung
HOP-18 NSCLC = tested on: HOP-18 NSCLC
SF-268 CNS = tested on: SF-268 CNS
SNB-75 CNS = tested on: SNB-75 CNS
NCI-H522 lung = tested on: NCI-H522 lung
IGROV1 ovarian = tested on: IGROV1 ovarian
SW-620 colon = tested on: SW-620 colon
SF-295 CNS = tested on: SF-295 CNS
NCI-H23 lung = tested on: NCI-H23 lung
MALME-3M melanoma = tested on: MALME-3M melanoma
EKVX NSCLC = tested on: EKVX NSCLC
SF-539 CNS = tested on: SF-539 CNS
HOP-62 NSCLC = tested on: HOP-62 NSCLC
SNB-19 CNS = tested on: SNB-19 CNS
TK-10 renal = tested on: TK-10 renal
HL-60(TB) leukemia = tested on: HL-60(TB) leukemia
SK-MEL-28 melanoma = tested on: SK-MEL-28 melanoma
HCC-2998 colon = tested on: HCC-2998 colon
XF 498 CNS = tested on: XF 498 CNS
SN12C renal = tested on: SN12C renal
SK-MEL-5 melanoma = tested on: SK-MEL-5 melanoma
OVCAR-8 ovarian = tested on: OVCAR-8 ovarian
786-0 renal = tested on: 786-0 renal
OVCAR-4 ovarian = tested on: OVCAR-4 ovarian
U251 CNS = tested on: U251 CNS
CAKI-1 renal = tested on: CAKI-1 renal
RXF 393 renal = tested on: RXF 393 renal
OVCAR-3 ovarian = tested on: OVCAR-3 ovarian
COLO 205 colon = tested on: COLO 205 colon
MOLT-4 leukemia = tested on: MOLT-4 leukemia
SR leukemia = tested on: SR leukemia

CC[C@@]1(O)C[C@H](OC2CC(N(C)C)C(OC3CC(O)C(OC4CCC(=O)C(C)O4)C(C)O3)C(C)O2)c2c(cc3c(c2O)C(=O)c2c(O)ccc(O)c2C3=O)[C@H]1C(=O)OC (stereo partly specified)
GI50 (A549 NSCLC): 0.000449 µM | TGI (HT29 colon): 16.2 nM [middle of 4 runs] | TGI (ACHN renal): 0.0164 µM and 0.0258 µM and 0.0225 µM | TGI (MDA-N): 0.00259 µM | TGI (DLD-1 colon): 0.0737 µM | TGI (NCI-H226 lung): 0.00641 µM and 0.0275 µM | TGI (A498 renal): 0.0142 µM and 0.0245 µM | GI50 (SNB-78 CNS): 0.00311 µM | GI50 (HCT-116 colon): 54 pM | TGI (HCT-116 colon): < 0.0001 µM | GI50 (M19-MEL melanoma): 12.5 pM | TGI (M19-MEL melanoma): 0.0121 µM and 0.0129 µM and 0.0336 µM | TGI (DU-145 prostate): 0.038 µM | TGI (HOP-92 NSCLC): 0.0353 µM and 0.0713 µM and 0.092 µM | TGI (LOX IMVI melanoma): 0.000668 µM | TGI (T-47D breast): 0.00569 µM and 0.0121 µM | TGI (HCT-15 colon): 0.00581 µM and 0.0298 µM | TGI (BT-549 breast): 0.00927 µM and 0.00276 µM | TGI (M14 melanoma): 0.0185 µM and 0.0374 µM and 0.152 µM | GI50 (SK-OV-3 ovarian): 0.0221 µM | TGI (CCRF-CEM leukemia): 0.012 µM and 0.0478 µM | GI50 (LXFL 529 NSCLC): 11.2 pM | TGI (DMS 273 small cell lung): 0.014 µM and 0.0198 µM | TGI (UACC-62 melanoma): 0.012 µM and 0.0118 µM and 0.0205 µM | GI50 (KM20L2 colon): 66.7 pM | TGI (KM20L2 colon): 0.0781 µM and 0.041 µM and 0.2 µM | TGI (SK-MEL-2 melanoma): 0.0166 µM and 0.0198 µM and 0.0243 µM | TGI (PC-3 prostate): 0.0062 µM | TGI (K-562 leukemia): 0.119 µM | TGI (MCF7 breast): 0.101 µM | GI50 (UACC-257 melanoma): < 0.0001 µM | TGI (KM12 colon): 0.0314 µM and 0.0126 µM and 0.113 µM | TGI (UO-31 renal): 0.000508 µM and < 0.0001 µM | GI50 (DMS 114 small cell lung): 0.000291 µM | TGI (DMS 114 small cell lung): 0.022 µM and 0.0306 µM and 0.0347 µM | TGI (OVCAR-5 ovarian): 0.0221 µM and 0.065 µM | GI50 (NCI-H460 lung): 54.1 pM | TGI (NCI-H460 lung): 0.000343 µM and < 0.0001 µM | GI50 (HOP-18 NSCLC): 11.7 µM | TGI (HOP-18 NSCLC): 24.1 µM

CN(C)C(=S)/N=c1\ssc(=S)n1-c1ccccc1
TGI (A549 NSCLC): 81.8 µM | TGI (HT29 colon): 37.5 µM | TGI (ACHN renal): 32.1 µM | TGI (DLD-1 colon): 26.9 µM | TGI (NCI-H226 lung): 26.9 µM | TGI (SF-268 CNS): 32.8 µM | TGI (A498 renal): 57.7 µM | TGI (SNB-75 CNS): 34.1 µM | TGI (NCI-H522 lung): 27.8 µM | TGI (SNB-78 CNS): 40 µM | TGI (HCT-116 colon): 27.2 µM | TGI (M19-MEL melanoma): 30.4 µM | TGI (IGROV1 ovarian): 39.1 µM | TGI (HOP-92 NSCLC): 34.7 µM | TGI (SW-620 colon): 22.6 µM | TGI (HCT-15 colon): 28.9 µM | TGI (M14 melanoma): 28.6 µM | TGI (SF-295 CNS): 46.6 µM | TGI (SK-OV-3 ovarian): > 100 µM | TGI (NCI-H23 lung): 77.5 µM | TGI (CCRF-CEM leukemia): > 100 µM | TGI (LXFL 529 NSCLC): 25.1 µM | TGI (MALME-3M melanoma): 31 µM | TGI (EKVX NSCLC): 43.6 µM | TGI (SF-539 CNS): 30.5 µM | TGI (DMS 273 small cell lung): 38.3 µM | TGI (HOP-62 NSCLC): 74.2 µM | TGI (UACC-62 melanoma): 30.6 µM | TGI (SNB-19 CNS): > 100 µM | TGI (TK-10 renal): 31.4 µM | TGI (KM20L2 colon): 33.2 µM | TGI (SK-MEL-2 melanoma): 21.6 µM | TGI (HL-60(TB) leukemia): 44.4 µM | TGI (K-562 leukemia): 42.6 µM | TGI (SK-MEL-28 melanoma): 30.5 µM | TGI (HCC-2998 colon): 46.3 µM | TGI (XF 498 CNS): 27.9 µM | TGI (SN12C renal): 28.8 µM | TGI (SK-MEL-5 melanoma): > 100 µM | TGI (OVCAR-8 ovarian): 28.5 µM | TGI (786-0 renal): 30.5 µM | TGI (UACC-257 melanoma): 29.6 µM | TGI (KM12 colon): 22.7 µM | TGI (UO-31 renal): 44.1 µM | TGI (DMS 114 small cell lung): 31.1 µM | TGI (OVCAR-5 ovarian): 29.9 µM | TGI (NCI-H460 lung): 33.1 µM | TGI (OVCAR-4 ovarian): 29.4 µM | TGI (HOP-18 NSCLC): > 100 µM | TGI (U251 CNS): 30.2 µM | TGI (CAKI-1 renal): 33.3 µM | TGI (RXF 393 renal): 33 µM

O=C1NC2(CCCC2)/C(=N\O)C12CCCC2
TGI (A549 NSCLC): > 100 µM | TGI (HT29 colon): > 100 µM | TGI (ACHN renal): > 100 µM | TGI (DLD-1 colon): > 100 µM | TGI (SF-268 CNS): > 100 µM | TGI (OVCAR-3 ovarian): > 100 µM | TGI (A498 renal): > 100 µM | TGI (SNB-75 CNS): > 100 µM | TGI (NCI-H522 lung): > 100 µM | TGI (SNB-78 CNS): > 100 µM | TGI (HCT-116 colon): > 100 µM | TGI (M19-MEL melanoma): > 100 µM | TGI (IGROV1 ovarian): > 100 µM | TGI (HOP-92 NSCLC): > 100 µM | TGI (LOX IMVI melanoma): > 100 µM | TGI (SW-620 colon): > 100 µM | TGI (HCT-15 colon): > 100 µM | TGI (M14 melanoma): > 100 µM | TGI (SF-295 CNS): > 100 µM | TGI (SK-OV-3 ovarian): > 100 µM | TGI (NCI-H23 lung): > 100 µM | TGI (CCRF-CEM leukemia): > 100 µM | TGI (LXFL 529 NSCLC): > 100 µM | TGI (MALME-3M melanoma): > 100 µM | TGI (COLO 205 colon): > 100 µM | TGI (MOLT-4 leukemia): > 100 µM | TGI (EKVX NSCLC): > 100 µM | TGI (SF-539 CNS): > 100 µM | TGI (DMS 273 small cell lung): > 100 µM | TGI (HOP-62 NSCLC): > 100 µM | TGI (UACC-62 melanoma): > 100 µM | TGI (SNB-19 CNS): > 100 µM | TGI (TK-10 renal): > 100 µM | TGI (SK-MEL-2 melanoma): > 100 µM | TGI (HL-60(TB) leukemia): > 100 µM | TGI (K-562 leukemia): > 100 µM | TGI (SK-MEL-28 melanoma): > 100 µM | TGI (SR leukemia): > 100 µM | TGI (XF 498 CNS): > 100 µM | TGI (SN12C renal): > 100 µM | TGI (SK-MEL-5 melanoma): > 100 µM | TGI (OVCAR-8 ovarian): > 100 µM | TGI (786-0 renal): > 100 µM | TGI (UACC-257 melanoma): > 100 µM | TGI (KM12 colon): > 100 µM | TGI (UO-31 renal): > 100 µM | TGI (DMS 114 small cell lung): > 100 µM | TGI (OVCAR-5 ovarian): > 100 µM | TGI (NCI-H460 lung): > 100 µM | TGI (OVCAR-4 ovarian): > 100 µM | TGI (HOP-18 NSCLC): > 100 µM | TGI (U251 CNS): > 100 µM | TGI (CAKI-1 renal): > 100 µM | TGI (RXF 393 renal): > 100 µM
